Measured values taken from the supplement of paper PMC10307832.

Assays:
Assay in all cases: relative viability (nuclei count vs DMSO), 5 days (fraction); higher = more cells survive
XMD13-2 = compound: C1CC1C(=O)NC2=NNC3=C2C=CC(=C3)C4=CC(=CC=C4)C(=O)NC5CC5 [XMD13-2]
Summary of the method: (§1)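 Acceptance criteria were a control CV below 25% and at least one doubling per plate. Lung cancer cell lines in 1536-well plates got five library-drug doses (not always all listed) √10 apart by pinning and were left 5 days with no medium change. Viability divides treated-well nuclei by vehicle-well nuclei and is the median across plates. Nuclei were counted by MetaXpress from 4× Hoechst images.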

ALW-II-49-7 = compound: Cc1ccc(C(=O)Nc2cccc(C(F)(F)F)c2)cc1Nc1cncc(C(N)=O)c1 [ALW-II-49-7]
Summary of the method: as §1

Dasatinib = compound: Cc1nc(Nc2ncc(C(=O)Nc3c(C)cccc3Cl)s2)cc(N2CCN(CCO)CC2)n1 [Dasatinib]
Summary of the method: as §1

Cell Line: NCI-H727
- relative viability (XMD13-2; 0.05 µM): 1.06
- relative viability (XMD13-2; 0.1581 µM): 0.892
- relative viability (XMD13-2; 0.5 µM): 0.973
- relative viability (XMD13-2; 1.581 µM): 0.947
- relative viability (XMD13-2; 5 µM): 1.04
- relative viability (ALW-II-49-7; 0.08 µM): 1.09
- relative viability (ALW-II-49-7; 0.253 µM): 0.907
- relative viability (ALW-II-49-7; 0.8 µM): 0.9
- relative viability (ALW-II-49-7; 2.53 µM): 0.902
- relative viability (ALW-II-49-7; 8 µM): 0.855
- relative viability (Dasatinib; 0.005 µM): 0.724
- relative viability (Dasatinib; 0.01581 µM): 0.678
- relative viability (Dasatinib; 0.05 µM): 0.53
- relative viability (Dasatinib; 0.075 µM, anchor plate): 0.37
- relative viability (Dasatinib; 0.1581 µM): 0.388
- relative viability (Dasatinib; 0.5 µM): 0.256

Cell Line: NCI-H358
- relative viability (XMD13-2; 0.05 µM): 1.18
- relative viability (XMD13-2; 0.1581 µM): 0.918
- relative viability (XMD13-2; 0.5 µM): 1.06
- relative viability (XMD13-2; 1.581 µM): 0.928
- relative viability (XMD13-2; 5 µM): 0.704
- relative viability (ALW-II-49-7; 0.08 µM): 0.891
- relative viability (ALW-II-49-7; 0.253 µM): 0.956
- relative viability (ALW-II-49-7; 0.8 µM): 0.924
- relative viability (ALW-II-49-7; 2.53 µM): 1.01
- relative viability (ALW-II-49-7; 8 µM): 1.07
- relative viability (Dasatinib; 0.005 µM): 0.867
- relative viability (Dasatinib; 0.01581 µM): 0.695
- relative viability (Dasatinib; 0.05 µM): 0.593
- relative viability (Dasatinib; 0.075 µM, anchor plate): 0.165
- relative viability (Dasatinib; 0.1581 µM): 0.248
- relative viability (Dasatinib; 0.5 µM): 0.163

Cell Line: NCI-H1437
- relative viability (XMD13-2; 0.05 µM): 0.984
- relative viability (XMD13-2; 0.1581 µM): 0.992
- relative viability (XMD13-2; 0.5 µM): 1.02
- relative viability (XMD13-2; 1.581 µM): 0.941
- relative viability (XMD13-2; 5 µM): 1.06
- relative viability (ALW-II-49-7; 0.08 µM): 0.985
- relative viability (ALW-II-49-7; 0.253 µM): 0.989
- relative viability (ALW-II-49-7; 0.8 µM): 0.973
- relative viability (ALW-II-49-7; 2.53 µM): 0.994
- relative viability (ALW-II-49-7; 8 µM): 0.947
- relative viability (Dasatinib; 0.005 µM): 1.05
- relative viability (Dasatinib; 0.01581 µM): 1.05
- relative viability (Dasatinib; 0.05 µM): 1.04
- relative viability (Dasatinib; 0.075 µM, anchor plate): 0.443
- relative viability (Dasatinib; 0.1581 µM): 0.887
- relative viability (Dasatinib; 0.5 µM): 0.348

Cell Line: NCI-H441
- relative viability (XMD13-2; 0.05 µM): 1.19
- relative viability (XMD13-2; 0.1581 µM): 1.08
- relative viability (XMD13-2; 0.5 µM): 0.968
- relative viability (XMD13-2; 1.581 µM): 0.96
- relative viability (XMD13-2; 5 µM): 0.771
- relative viability (ALW-II-49-7; 0.08 µM): 1.2
- relative viability (ALW-II-49-7; 0.253 µM): 0.868
- relative viability (ALW-II-49-7; 0.8 µM): 0.913
- relative viability (ALW-II-49-7; 2.53 µM): 0.902
- relative viability (ALW-II-49-7; 8 µM): 0.762
- relative viability (Dasatinib; 0.005 µM): 1.03
- relative viability (Dasatinib; 0.01581 µM): 0.997
- relative viability (Dasatinib; 0.05 µM): 1.11
- relative viability (Dasatinib; 0.075 µM, anchor plate): 0.675
- relative viability (Dasatinib; 0.1581 µM): 0.636
- relative viability (Dasatinib; 0.5 µM): 0.338

Cell Line: EMC-BAC-2
- relative viability (XMD13-2; 0.05 µM): 1.13
- relative viability (XMD13-2; 0.1581 µM): 0.896
- relative viability (XMD13-2; 0.5 µM): 1.02
- relative viability (XMD13-2; 1.581 µM): 0.616
- relative viability (XMD13-2; 5 µM): 0.79
- relative viability (ALW-II-49-7; 0.08 µM): 1.02
- relative viability (ALW-II-49-7; 0.253 µM): 0.966
- relative viability (ALW-II-49-7; 0.8 µM): 0.888
- relative viability (ALW-II-49-7; 2.53 µM): 0.902
- relative viability (ALW-II-49-7; 8 µM): 0.758
- relative viability (Dasatinib; 0.005 µM): 0.884
- relative viability (Dasatinib; 0.01581 µM): 0.786
- relative viability (Dasatinib; 0.05 µM): 0.657
- relative viability (Dasatinib; 0.075 µM, anchor plate): 0.336
- relative viability (Dasatinib; 0.1581 µM): 0.472
- relative viability (Dasatinib; 0.5 µM): 0.344

Cell Line: NCI-H647
- relative viability (XMD13-2; 0.05 µM): 1.12
- relative viability (XMD13-2; 0.1581 µM): 1.05
- relative viability (XMD13-2; 0.5 µM): 1.06
- relative viability (XMD13-2; 1.581 µM): 1.03
- relative viability (XMD13-2; 5 µM): 0.747
- relative viability (ALW-II-49-7; 0.08 µM): 0.904
- relative viability (ALW-II-49-7; 0.253 µM): 0.944
- relative viability (ALW-II-49-7; 0.8 µM): 0.926
- relative viability (ALW-II-49-7; 2.53 µM): 0.967
- relative viability (ALW-II-49-7; 8 µM): 0.795
- relative viability (Dasatinib; 0.005 µM): 0.76
- relative viability (Dasatinib; 0.01581 µM): 0.572
- relative viability (Dasatinib; 0.05 µM): 0.372
- relative viability (Dasatinib; 0.075 µM, anchor plate): 0.199
- relative viability (Dasatinib; 0.1581 µM): 0.227
- relative viability (Dasatinib; 0.5 µM): 0.207

Cell Line: CAL-12T
- relative viability (XMD13-2; 0.05 µM): 1.05
- relative viability (XMD13-2; 0.1581 µM): 0.961
- relative viability (XMD13-2; 0.5 µM): 1.06
- relative viability (XMD13-2; 1.581 µM): 0.887
- relative viability (XMD13-2; 5 µM): 1.02
- relative viability (ALW-II-49-7; 0.08 µM): 0.952
- relative viability (ALW-II-49-7; 0.253 µM): 0.96
- relative viability (ALW-II-49-7; 0.8 µM): 1.03
- relative viability (ALW-II-49-7; 2.53 µM): 1.02
- relative viability (ALW-II-49-7; 8 µM): 0.928
- relative viability (Dasatinib; 0.005 µM): 1.02
- relative viability (Dasatinib; 0.01581 µM): 0.998
- relative viability (Dasatinib; 0.05 µM): 1.12
- relative viability (Dasatinib; 0.075 µM, anchor plate): 0.486
- relative viability (Dasatinib; 0.1581 µM): 0.795
- relative viability (Dasatinib; 0.5 µM): 0.416

Cell Line: NCI-H1792
- relative viability (XMD13-2; 0.05 µM): 1.09
- relative viability (XMD13-2; 0.1581 µM): 0.907
- relative viability (XMD13-2; 0.5 µM): 0.925
- relative viability (XMD13-2; 1.581 µM): 0.808
- relative viability (XMD13-2; 5 µM): 1.12
- relative viability (ALW-II-49-7; 0.08 µM): 0.679
- relative viability (ALW-II-49-7; 0.253 µM): 0.873
- relative viability (ALW-II-49-7; 0.8 µM): 0.915
- relative viability (ALW-II-49-7; 2.53 µM): 0.73
- relative viability (ALW-II-49-7; 8 µM): 0.654
- relative viability (Dasatinib; 0.005 µM): 0.844
- relative viability (Dasatinib; 0.01581 µM): 0.773
- relative viability (Dasatinib; 0.05 µM): 0.643
- relative viability (Dasatinib; 0.075 µM, anchor plate): 0.827
- relative viability (Dasatinib; 0.1581 µM): 0.653
- relative viability (Dasatinib; 0.5 µM): 0.277

Cell Line: H3255
- relative viability (XMD13-2; 0.05 µM): 1.18
- relative viability (XMD13-2; 0.1581 µM): 0.949
- relative viability (XMD13-2; 0.5 µM): 0.95
- relative viability (XMD13-2; 1.581 µM): 0.892
- relative viability (XMD13-2; 5 µM): 0.895
- relative viability (ALW-II-49-7; 0.08 µM): 1.12
- relative viability (ALW-II-49-7; 0.253 µM): 0.999
- relative viability (ALW-II-49-7; 0.8 µM): 1.04
- relative viability (ALW-II-49-7; 2.53 µM): 0.904
- relative viability (ALW-II-49-7; 8 µM): 0.808
- relative viability (Dasatinib; 0.005 µM): 0.971
- relative viability (Dasatinib; 0.01581 µM): 1
- relative viability (Dasatinib; 0.05 µM): 0.881
- relative viability (Dasatinib; 0.075 µM, anchor plate): 0.402
- relative viability (Dasatinib; 0.1581 µM): 0.812
- relative viability (Dasatinib; 0.5 µM): 0.433

Cell Line: HCC-78
- relative viability (XMD13-2; 0.05 µM): 1.06
- relative viability (XMD13-2; 0.1581 µM): 0.934
- relative viability (XMD13-2; 0.5 µM): 0.981
- relative viability (XMD13-2; 1.581 µM): 0.908
- relative viability (XMD13-2; 5 µM): 0.962
- relative viability (ALW-II-49-7; 0.08 µM): 0.972
- relative viability (ALW-II-49-7; 0.253 µM): 0.938
- relative viability (ALW-II-49-7; 0.8 µM): 0.842
- relative viability (ALW-II-49-7; 2.53 µM): 0.934
- relative viability (ALW-II-49-7; 8 µM): 0.933
- relative viability (Dasatinib; 0.005 µM): 0.551
- relative viability (Dasatinib; 0.01581 µM): 0.764
- relative viability (Dasatinib; 0.05 µM): 0.721
- relative viability (Dasatinib; 0.075 µM, anchor plate): 0.408
- relative viability (Dasatinib; 0.1581 µM): 0.658
- relative viability (Dasatinib; 0.5 µM): 0.314

Cell Line: EBC-1
- relative viability (XMD13-2; 0.05 µM): 1.07
- relative viability (XMD13-2; 0.1581 µM): 1.09
- relative viability (XMD13-2; 0.5 µM): 1
- relative viability (XMD13-2; 1.581 µM): 0.858
- relative viability (XMD13-2; 5 µM): 0.508
- relative viability (ALW-II-49-7; 0.08 µM): 0.93
- relative viability (ALW-II-49-7; 0.253 µM): 0.93
- relative viability (ALW-II-49-7; 0.8 µM): 0.79
- relative viability (ALW-II-49-7; 2.53 µM): 1
- relative viability (ALW-II-49-7; 8 µM): 0.697
- relative viability (Dasatinib; 0.005 µM): 1.03
- relative viability (Dasatinib; 0.01581 µM): 0.893
- relative viability (Dasatinib; 0.05 µM): 0.894
- relative viability (Dasatinib; 0.1581 µM): 0.831
- relative viability (Dasatinib; 0.5 µM): 0.736
